Results reported in patent US20130315829A1, “Compounds and Methods for Detecting Reactive Oxygen Species” (The Regents of the University of California, priority 2010, published 2013).

Key:
LNCaP-luc cells [1] = experiment: Paraquat stimulation of endogenous H2O2 in LNCaP-luc cells, with or without catalase; assay type: cell-based, human
Method: A Xenogen IVIS Spectrum instrument (Caliper Life Sciences, Hopkinton, Mass.) was used for bioluminescent imaging in all ex vivo experiments. […] Cells were split twice per week. Prior to assaying, cells were passed and plated (4×10^4 cells/well) in black 96-well plates with clear bottoms (Becton Dickinson and Company, Franklin Lakes, N.J.). Two days after being plated, once the cells were ca. 95% confluent, the medium was removed and PCL-1 (2.5% final DMSO concentration) and H2O2 (2.5-500 μM final concentrations) in DMEM (−FBS) were added. The plate was immediately imaged for 2 hours. For stimulation experiments, the cells (ca. 95 confluent) were incubated with paraquat (0 or 500 μM, 100 μL DMEM+10% FBS) for 24 hours prior to the addition of PCL-1 (50 μM) with or without catalase (1×10̂4 U/L).
To determine whether PCL-1 could detect endogenously produced H2O2 in living cells, LNCaP-luc cells were incubated with 500 μM paraquat for 24 hours, as previous work establishes that paraquat triggers elevations in intracellular H2O2 through disruption of the mitochondrial electron transport chain. Following paraquat stimulation, the LNCaP-luc cells were loaded with PCL-1 and the subsequent bioluminescent signal was detected.
Because luciferin is a cell-permeable small molecule, two possible modes of action for PCL-1 are (i) reaction of this probe with H2O2 in the extracellular medium followed by cellular uptake of the free luciferin product, or (ii) reaction of PCL-1 with intracellular H2O2 to generate luciferin within cells. To probe whether PCL-1 was reacting with H2O2 in the intra- or extracellular space, catalase was added as a cell-impermeable scavenger for extracellular H2O2 with paraquat stimulation.

LNCaP-luc tumors = experiment: LNCaP-luc tumor xenograft model in SHO mice; assay type: in vivo, mouse
Method: Animals. […] Mice were single or group-housed on a 12:12 light-dark cycle at 71° C. with free access to food and water.
Tumor xenografts were created via i.p. injection of 3×10̂6 LNCaP-luc cells (100 μL, 1:1 PBS:Matrigel) in adult SHO mice. Tumor size was monitored by injecting 0.5-5 μmol D-lucifeirn (potassium salt, Gold Biotech., St. Louis, Mo.) in PBS. At least two weeks post-inoculation, tumors were injected with PCL-1, valeryl luciferin, testosterone propionate and N-acetylcysteine in various combinations to obtain the experimental data. On day one of the experiments, mice were injected with either PCL-1 (0.5 μmol) or valeryl luciferin (0.44 μmol) and imaged for 45 minutes using an IVIS spectrum. To determine the effect of testosterone on the tumors, the mice were injected with testosterone propionate (3 mg in 50 μL sesame oil) on day 2, followed 1.5 hours later by an injection of PCL-1 (0.5 μmol) or valeryl luciferin (0.44 μmol). Controls for the testosterone experiment were completed by injecting sesame oil (50 μL) on day 2, followed by the probe (0.5 μmol) or valeryl luciferin (0.44 μmol) 1.5 hours later. Additional experiments with N-acetylcysteine were completed by injecting the mice with testosterone propionate (3 mg in 50 μL sesame oil) on day 2, followed 1.5 hours later by injections of N-acetylcysteine (0.2 mg in 100 μL PBS) and PCL-1 (0.5 μmol). Day 2 injections were followed by 45 minutes of imaging.
To study the stimulatory effects of testosterone and H2O2 production in prostate cancer in living animals, an intraperitoneal (i.p.) LNCaP-luc tumor xenograft model was developed in immunodeficient severe combined immunodeficiency hairless outbred (SHO) mice. To determine the baseline levels of H2O2 generation in the tumors as well as alterations in H2O2 fluxes over 24 hours, mice were injected with PCL-1 on Day 1 and with sesame oil, a vehicle used for all experiments, and PCL-1 after 24 hours on Day 2. […] The effects of testosterone (in the form of testosterone propionate) on H2O2 production were tested within the prostate cancer tumors. For these experiments, mice were injected with PCL-1 on Day 1 and the baseline signal was measured. On Day 2, the mice were injected either with testosterone propionate and then PCL-1, or empty vehicle and PCL-1.
These experiments were performed by injecting mice on Day 2 with testosterone propionate, followed by serial application of NAC and PCL-1.

FVB-luc mice [2] = experiment: In vivo antioxidant experiments in FVB-luc mice; design: species or system mouse; details: NAC 0.2 mg i.p. then PCL-1 i.p., total photon flux over one hour
Excerpt: (§1) A Xenogen IVIS Spectrum instrument (Caliper Life Sciences, Hopkinton, Mass.) was used for bioluminescent imaging in all in vivo experiments. Phosphate Buffered Saline (PBS) was purchased from Thermo Fisher Scientific (Waltham, Mass.). Isoflurane was purchased from Phoenix Pharmaceuticals, Inc. (St. Joseph, Mo.), and sterile DMSO was purchased from Sigma-Aldrich (St. Louis, Mo.). Medical grade oxygen was purchased from Praxair (Danbury, Conn.).
(§2) Animals. FVB-luc (FVB-Tg(CAG-luc,-GFP)L2G85Chco/J) mice were obtained from UC Davis, and SHO mice were obtained from Charles River Labs. Mice were single or group-housed on a 12:12 light-dark cycle at […] with free access to food and water. All studies were approved and performed according to the guidelines of the Animal Care and Use Committee of the University of California, Berkeley.
Adult FVB-luc mice were anesthetized with isoflurane and injected with N-acetylcysteine (0.2 mg, 100 μL PBS, pH 7-8), followed immediately by an i.p. injection of PCL-1 (5 μmol, 50 μL 1:1 DMSO:PBS). Control mice were injected with 100 μL PBS and PCL-1.
(§3) PCL-1 was applied to molecular imaging of H2O2 in living animals. Initial studies utilized FVB-luc mice that ubiquitously express firefly luciferase along with exogenous peroxide addition. […]

[3] = In vitro ROS selectivity test with purified firefly luciferase: H2O2; assay type: biochemical; details: PCL-1 5 μM, H2O2 100 μM, over an hour, then firefly luciferase; light integrated over 45 minutes
Method: (§4) Millipore water was used to prepare all aqueous solutions. Measurements for in vitro tests were performed in 50 mM Tris buffer, pH 7.4, with 10 mM MgCl2, 0.1 mM ZnCl2, and 2 mM ATP at 37° C. Bioluminescent measurements for in vitro tests were recorded using a Molecular Devices SpectraMax M2 plate reader (Sunnyvale, Calif.). Samples for bioluminescent measurements were placed in white, opaque 96-well plates, which were purchased from Corning Inc. (Corning, N.Y.). ATP was purchased from MP Biomedicals (Solon, Ohio), and luciferase was purchased from Promega (Madison, Wis.).
(§5) Various reactive oxygen species (ROS, 100 μM) were administered to PCL-1 (5 μM) in the Tris buffer as follows. Hydrogen peroxide (H2O2), tert-butyl hydroperoxide (TBHP), and hypochlorite (OCl^−) were delivered from 30%, 70%, and 6.15% aqueous solutions, respectively. […]
(§6) Initial experiments tested the ability of PCL-1 to detect H2O2 in a selective and concentration-dependent manner. […] PCL-1 was incubated with various ROS for 5-60 minutes followed by addition of firefly luciferase, and then light production was measured over 45 minutes to determine whether luciferin was produced during the ROS incubation period. The total normalized photon flux was calculated by dividing each total photon flux by the zero timepoint total photon flux for each run to allow a direct comparison between various ROS. […]

FVB-luc mice [4] = experiment: In vivo exogenous H2O2 experiments in FVB-luc mice; design: species or system mouse; details: PCL-1 i.p. 0.5 μmol
Excerpt: as §1, §2
Adult FVB-luc mice were anesthetized with isoflurane and injected (i.p.) with PCL-1 (0.5 μmol, 50 μL 1:1 DMSO:PBS), followed immediately by an i.p. injection of H2O2 (0.0375, 0.15, 0.6, and 2.4 μmol in 100 μL PBS). Control mice were injected with PCL-1 and 100 μL PBS.
as §3

[5] = In vitro ROS selectivity test with purified firefly luciferase: other ROS; assay type: biochemical; details: PCL-1 5 μM, ROS 100 μM, 5-60 minutes, then firefly luciferase
Method: as §4, §5, §6

LNCaP-luc cells [6] = experiment: Bioluminescence of LNCaP-luc cells with PCL-1 and exogenous H2O2; assay type: cell-based, human; details: PCL-1 50 μM
Method: A Xenogen IVIS Spectrum instrument (Caliper Life Sciences, Hopkinton, Mass.) was used for bioluminescent imaging in all ex vivo experiments. LNCaP-luc cells (kindly provided by Chris Contag, Stanford University) were cultured in Dulbecco's Modified Eagle Medium (DMEM) containing 10% Fetal Bovine Serum (FBS). Cells were split twice per week. Prior to assaying, cells were passed and plated (4×10^4 cells/well) in black 96-well plates with clear bottoms (Becton Dickinson and Company, Franklin Lakes, N.J.). Two days after being plated, once the cells were ca. 95% confluent, the medium was removed and PCL-1 (2.5% final DMSO concentration) and H2O2 (2.5-500 μM final concentrations) in DMEM (−FBS) were added. The plate was immediately imaged for 2 hours. For stimulation experiments, the cells (ca. 95 confluent) were incubated with paraquat (0 or 500 μM, 100 μL DMEM+10% FBS) for 24 hours prior to the addition of PCL-1 (50 μM) with or without catalase (1×10̂4 U/L).
With data showing that PCL-1 is a selective and sensitive bioluminescent reporter for H2O2 in aqueous solution, this system was applied to imaging changes in H2O2 levels in cell culture. […] To achieve this goal, PCL-1 and H2O2 were added to LNCaP-luc cells stably transfected with the firefly luciferase gene. In the absence of H2O2, the bioluminescent signal from the cells was negligible. In contrast, addition of 2.5 to 500 μM H2O2 triggers a linear increase, up to 250 μM, in the total observed photon flux (FIG. 3). The 2.5 μM detection limit for H2O2 is well within estimated concentration ranges of endogenously produced H2O2 fluxes.
Total photon flux, integrated over 2 h, from LNCaP-luc cells with PCL-1 (50 μM) and H2O2 (2.5-500 μM) in DMEM. All values show statistically significant differences (p<0.001) except between 250 and 500 μM H2O2. (b) Total photon flux, integrated over 2 h, from LNCaP-luc cells incubated with paraquat (0 or 500 μM) for 24 h, followed by addition of PCL-1 (50 μM)±catalase (1×10̂4 U/L). […]

## C[n+]1ccc(-c2cc[n+](C)cc2)cc1 [paraquat, reference compound]
LNCaP-luc cells [1]; 500 μM paraquat for 24 hours, then PCL-1 50 μM
  PCL-1 derived luminescence compared to unstimulated control cells: patently higher

## CC(=O)N[C@@H](CS)C(=O)O [NAC, N-acetylcysteine]
LNCaP-luc tumors; SHO mice with LNCaP-luc tumors, testosterone propionate 3 mg, then NAC 0.2 mg and PCL-1 0.5 μmol
  bioluminescent signal in testosterone-stimulated animals after NAC treatment: reduction in bioluminescent signal in testosterone-stimulated animals back to baseline levels
FVB-luc mice [2]
  bioluminescent signal of NAC-treated animals compared to vehicle control animals: significantly reduced bioluminescent signal

## CCC(=O)O[C@H]1CC[C@H]2[C@@H]3CCC4=CC(=O)CC[C@]4(C)[C@H]3CC[C@]12C [testosterone propionate]
LNCaP-luc tumors; SHO mice with LNCaP-luc tumors, testosterone propionate 3 mg in sesame oil, PCL-1 0.5 μmol 1.5 h later
  increase in total photon flux compared to vehicle control mice: approximately 41%

## O=C(O)[C@H]1CSC(c2nc3ccc(OCc4ccc(B(O)O)cc4)cc3s2)=N1 [PCL-1, (S)-2-(6-(4-Boronobenzyloxy)benzo[d]thiazol-2-yl)-4,5-dihydrothiazole-4-carboxylic acid]
[3]
  increase in bioluminescent signal (total normalized photon flux) on addition of H2O2: approximately seven-fold
FVB-luc mice [4]
  bioluminescence of mice treated only with PCL-1, no added peroxide: modest but measurable bioluminescence
FVB-luc mice [4]; then H2O2 i.p., integrated over one hour
  integrated total photon flux as a function of the H2O2 concentration: dose-dependent increase in signal
[5]
  increase in bioluminescent signal on reaction with the other ROS: little to no increase in signal
LNCaP-luc cells [6]
  detection limit for H2O2: 2.5 µM
LNCaP-luc cells [6]; H2O2 2.5 to 500 μM, integrated over 2 h
  H2O2 concentration up to which total observed photon flux increases linearly: up to 250 μM
LNCaP-luc cells [6]; no H2O2
  bioluminescent signal from the cells in the absence of H2O2: negligible
LNCaP-luc tumors; SHO mice with LNCaP-luc tumors, PCL-1 0.5 μmol Day 1, sesame oil and PCL-1 Day 2
  change in basal bioluminescent signal from Day 1 to Day 2: no change in basal bioluminescent signal

## O=C(O)[C@H]1CSC(c2nc3ccc(O)cc3s2)=N1 [luciferin]
LNCaP-luc tumors; LNCaP-luc cells, peak before first imaging timepoint
  time after injection at which the signal peak is reached: < 1 min

## catalase
LNCaP-luc cells [1]; 500 μM paraquat 24 h, PCL-1 50 μM, catalase 1×10^4 U/L
  bioluminescence signal with catalase plus paraquat compared to paraquat alone: decrease in bioluminescence signal
LNCaP-luc cells [1]; no paraquat, PCL-1 50 μM, catalase 1×10^4 U/L
  PCL-1 bioluminescence of catalase-treated cells compared to untreated specimens: reduces the level of PCL-1 bioluminescence
